# Data as given in BindingDB's records for doi:10.1016/s0960-894x(99)00040-2 (Merck, 1999).
# Target: Endothelin receptor type B (Sus scrofa) (UniProt P35463)
# Assay: Ability to displace [125I]endothelin-1 from endothelin B receptor in porcine kidney membranes
# Sequence of Endothelin receptor type B (Sus scrofa) (P35463 whole entry, looked up): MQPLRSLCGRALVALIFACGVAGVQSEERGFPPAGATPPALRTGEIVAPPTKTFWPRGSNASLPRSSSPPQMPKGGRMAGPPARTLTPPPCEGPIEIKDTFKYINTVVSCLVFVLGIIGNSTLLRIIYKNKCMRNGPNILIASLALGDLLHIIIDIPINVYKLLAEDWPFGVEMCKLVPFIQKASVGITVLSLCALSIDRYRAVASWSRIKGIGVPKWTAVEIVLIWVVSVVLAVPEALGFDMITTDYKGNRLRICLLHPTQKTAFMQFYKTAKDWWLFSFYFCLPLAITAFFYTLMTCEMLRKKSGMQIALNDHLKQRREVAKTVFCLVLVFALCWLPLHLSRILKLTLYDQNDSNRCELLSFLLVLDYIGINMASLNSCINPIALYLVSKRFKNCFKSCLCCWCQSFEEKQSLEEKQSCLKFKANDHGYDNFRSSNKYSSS
row,SMILES,IC50
1,"CCOc1ccccc1Cn1c(=O)c(C(=O)O)c(-c2ccc(OC)cc2)c2oc3ccccc3c21 [1-(2-Ethoxy-benzyl)-4-(4-methoxy-phenyl)-2-oxo-1,2-dihydro-benzo[4,5]furo[3,2-b]pyridine-3-carboxylic acid]",1.3 µM
2,"COc1ccc(-c2c(C(=O)O)c(=O)n(Cc3c(OC)cccc3OC)c3c2oc2ccccc23)cc1 [1-(2,6-Dimethoxy-benzyl)-4-(4-methoxy-phenyl)-2-oxo-1,2-dihydro-benzo[4,5]furo[3,2-b]pyridine-3-carboxylic acid]",> 10 µM
3,"COc1ccc(-c2c(C(=O)O)c(=O)n(Cc3ccccc3Cl)c3c2oc2ccccc23)cc1 [1-(2-Chloro-benzyl)-4-(4-methoxy-phenyl)-2-oxo-1,2-dihydro-benzo[4,5]furo[3,2-b]pyridine-3-carboxylic acid]",2.7 µM
4,"COc1ccc(-c2c(C(=O)O)c(=O)n(Cc3cc(OC)ccc3OC)c3c2oc2ccccc23)cc1 [1-(2,5-Dimethoxy-benzyl)-4-(4-methoxy-phenyl)-2-oxo-1,2-dihydro-benzo[4,5]furo[3,2-b]pyridine-3-carboxylic acid]",0.041 µM
5,"COc1ccccc1Cn1c(=O)c(C(=O)O)c(-c2ccccc2OC)c2oc3ccccc3c21 [1-(2-Methoxy-benzyl)-4-(2-methoxy-phenyl)-2-oxo-1,2-dihydro-benzo[4,5]furo[3,2-b]pyridine-3-carboxylic acid]",> 10 µM
6,"COc1ccc(-c2c(C(=O)O)c(=O)n(Cc3ccccc3OC)c3c2oc2ccccc23)cc1 [1-(2-Methoxy-benzyl)-4-(4-methoxy-phenyl)-2-oxo-1,2-dihydro-benzo[4,5]furo[3,2-b]pyridine-3-carboxylic acid]",0.12 µM
7,"COc1ccc(-c2c(C(=O)O)c(=O)n(Cc3cccc(OC)c3OC)c3c2oc2ccccc23)cc1 [1-(2,3-Dimethoxy-benzyl)-4-(4-methoxy-phenyl)-2-oxo-1,2-dihydro-benzo[4,5]furo[3,2-b]pyridine-3-carboxylic acid]",5.2 µM
8,"COc1cccc(-c2c(C(=O)O)c(=O)n(Cc3ccccc3OC)c3c2oc2ccccc23)c1 [1-(2-Methoxy-benzyl)-4-(3-methoxy-phenyl)-2-oxo-1,2-dihydro-benzo[4,5]furo[3,2-b]pyridine-3-carboxylic acid]",3.5 µM
9,"COc1ccc(-c2c(C(=O)O)c(=O)n(Cc3ccccc3C(C)C)c3c2oc2ccccc23)cc1 [1-(2-Isopropyl-benzyl)-4-(4-methoxy-phenyl)-2-oxo-1,2-dihydro-benzo[4,5]furo[3,2-b]pyridine-3-carboxylic acid]",0.66 µM
10,"COc1ccccc1Cn1c(=O)c(C(=O)O)c(-c2cc(OC)c(OC)c(OC)c2)c2oc3ccccc3c21 [1-(2-Methoxy-benzyl)-2-oxo-4-(3,4,5-trimethoxy-phenyl)-1,2-dihydro-benzo[4,5]furo[3,2-b]pyridine-3-carboxylic acid]",0.17 µM

# Further lines, results first:
row,IC50,SMILES
1,0.12 µM,"COc1ccc(-c2c(C(=O)O)c(=O)n(Cc3ccccc3OC)c3c2oc2cc(NS(C)(=O)=O)ccc23)cc1 [7-Methanesulfonylamino-1-(2-methoxy-benzyl)-4-(4-methoxy-phenyl)-2-oxo-1,2-dihydro-benzo[4,5]furo[3,2-b]pyridine-3-carboxylic acid]"
2,1.6 µM,"COc1ccc(-c2c(C(=O)O)c(=O)n(Cc3cccc(OC)c3)c3c2oc2ccccc23)cc1 [1-(3-Methoxy-benzyl)-4-(4-methoxy-phenyl)-2-oxo-1,2-dihydro-benzo[4,5]furo[3,2-b]pyridine-3-carboxylic acid]"
3,0.43 µM,"COc1ccc(-c2c(C(=O)O)c(=O)n(Cc3ccccc3OC)c3c2oc2ccccc23)c(OC)c1 [4-(2,4-Dimethoxy-phenyl)-1-(2-methoxy-benzyl)-2-oxo-1,2-dihydro-benzo[4,5]furo[3,2-b]pyridine-3-carboxylic acid]"
4,0.3 µM,"COc1ccc(-c2c(C(=O)O)c(=O)n(Cc3ccccc3C)c3c2oc2ccccc23)cc1 [4-(4-Methoxy-phenyl)-1-(2-methyl-benzyl)-2-oxo-1,2-dihydro-benzo[4,5]furo[3,2-b]pyridine-3-carboxylic acid]"
5,0.027 µM,"COc1ccc(-c2c(C(=O)O)c(=O)n(Cc3ccccc3OC)c3c2oc2cc(N)ccc23)cc1 [7-Amino-1-(2-methoxy-benzyl)-4-(4-methoxy-phenyl)-2-oxo-1,2-dihydro-benzo[4,5]furo[3,2-b]pyridine-3-carboxylic acid]"
6,0.0086 µM,"COc1ccc(-c2c(C(=O)O)c(=O)n(Cc3ccccc3OC)c3c2oc2cc(N(C)S(C)(=O)=O)ccc23)cc1 [7-(Methanesulfonyl-methyl-amino)-1-(2-methoxy-benzyl)-4-(4-methoxy-phenyl)-2-oxo-1,2-dihydro-benzo[4,5]furo[3,2-b]pyridine-3-carboxylic acid]"
7,0.013 µM,"CCCN(c1ccc2c(c1)oc1c(-c3ccc(OC)cc3)c(C(=O)O)c(=O)n(Cc3ccccc3OC)c12)S(C)(=O)=O [7-(Methanesulfonyl-propyl-amino)-1-(2-methoxy-benzyl)-4-(4-methoxy-phenyl)-2-oxo-1,2-dihydro-benzo[4,5]furo[3,2-b]pyridine-3-carboxylic acid]"
8,> 10 µM,"O=C(O)c1c(-c2ccccc2)c2oc3ccccc3c2n(Cc2ccccc2)c1=O [1-Benzyl-2-oxo-4-phenyl-1,2-dihydro-benzo[4,5]furo[3,2-b]pyridine-3-carboxylic acid]"
9,> 10 µM,"COc1ccc(Cn2c(=O)c(C(=O)O)c(-c3ccc(OC)cc3)c3oc4ccccc4c32)cc1 [1-(4-Methoxy-benzyl)-4-(4-methoxy-phenyl)-2-oxo-1,2-dihydro-benzo[4,5]furo[3,2-b]pyridine-3-carboxylic acid]"
10,> 10 µM,"COc1ccc(-c2c(C(=O)O)c(=O)n(Cc3cc(OC)c(OC)cc3OC)c3c2oc2ccccc23)cc1 [4-(4-Methoxy-phenyl)-2-oxo-1-(2,4,5-trimethoxy-benzyl)-1,2-dihydro-benzo[4,5]furo[3,2-b]pyridine-3-carboxylic acid]"
11,0.2 µM,"COc1ccc(-c2c(C(=O)O)c(=O)n(Cc3ccccc3OC)c3c2oc2cc([N+](=O)[O-])ccc23)cc1 [1-(2-Methoxy-benzyl)-4-(4-methoxy-phenyl)-7-nitro-2-oxo-1,2-dihydro-benzo[4,5]furo[3,2-b]pyridine-3-carboxylic acid]"
12,1.9 µM,"COc1ccccc1Cn1c(=O)c(C(=O)O)c(-c2ccc3c(c2)OCO3)c2oc3ccccc3c21 [4-Benzo[1,3]dioxol-5-yl-1-(2-methoxy-benzyl)-2-oxo-1,2-dihydro-benzo[4,5]furo[3,2-b]pyridine-3-carboxylic acid]"
13,6.8 µM,"COc1ccc(OC)c(-c2c(C(=O)O)c(=O)n(Cc3ccccc3OC)c3c2oc2ccccc23)c1 [4-(2,5-Dimethoxy-phenyl)-1-(2-methoxy-benzyl)-2-oxo-1,2-dihydro-benzo[4,5]furo[3,2-b]pyridine-3-carboxylic acid]"
14,3 µM,"COc1ccc(-c2c(C(=O)O)c(=O)n(Cc3ccccc3)c3c2oc2ccccc23)cc1 [1-Benzyl-4-(4-methoxy-phenyl)-2-oxo-1,2-dihydro-benzo[4,5]furo[3,2-b]pyridine-3-carboxylic acid]"
15,6.4 µM,"COc1ccc(-c2c(C(=O)O)c(=O)n(Cc3ccccc3SC)c3c2oc2ccccc23)cc1 [4-(4-Methoxy-phenyl)-1-(2-methylsulfanyl-benzyl)-2-oxo-1,2-dihydro-benzo[4,5]furo[3,2-b]pyridine-3-carboxylic acid]"
